A short description of series [1]: Encapsulation efficiency, RiboGreen RNA quantitation assay (CA HA modFlu mRNA LNPs). The settings on record: LNP with CA HA modFlu mRNA. In kind it is physicochemical. The method in brief:
(§1)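 LNPs of ionizable lipid:cholesterol:DSPC:ALC-0159 (molar ratio about 46.3:42.7:9.4:1.6) formed by syringe-pump mixing of ethanolic lipids with mRNA at N:P about 6:1, then dialysed into buffer (e.g., Tris) and filtered. Size and PDI measured by DLS; total RNA and encapsulation efficiency by RiboGreen.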

Another series concerns Hela cells. Briefly: In vitro expression of novel ionizable lipid nanoparticles, high content imaging (CA HA modFlu mRNA). It is filed as cell-based. The settings on record: LNP with CA HA modFlu mRNA. The gist of the method: (§2)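 Lipid nanoparticles of ionizable lipid, cholesterol, DSPC and ALC-0159 (about 46.3:42.7:9.4:1.6 molar), N:P about 6:1, carrying mRNA, dosed onto cells overnight at 37° C., 5% CO2. Cells fixed and stained with Hoechst plus antibody to encoded protein; nuclei and antigen-positive cells counted by high-content imaging.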

For the next series, the system named is HEK293F cells. The series is described as above. In kind it is cell-based. The settings on record: LNP with CA HA modFlu mRNA. The gist of the method:
as §2

A short description of series [2]: LNP size and polydispersity index by Malvern Zetasizer dynamic light scattering (CA HA modFlu mRNA LNPs). In kind it is physicochemical. The settings on record: DLS; for Size (nm): LNP of the ionizable lipid:cholesterol:DSPC:ALC-0159 about 46.3:42.7:9.4:1.6, N:P about 6:1, CA HA modFlu mRNA; for PDI: LNP with CA HA modFlu mRNA. The method in brief: as §1

`CCCCCCCC(CCCCCCC)C(=O)OCC(COC(=O)C(CCCCCCC)CCCCCCC)N1CC2(CCN(CCCCCO)CC2)C1` [Example 18, 2-(7-(5-hydroxypentyl)-2,7-diazaspiro[3.5]nonan-2-yl)propane-1,3-diyl bis(2-heptylnonanoate)]: in series [1], the EE % amounted to 99%. Besides, the “EC50 Hela (ng/well)” value in the series with Hela cells is given as 1.4 ng/well. In addition, the “EC50 Hek293F (ng/well)” value with HEK293F cells is on record as 0.57 ng/well. In series [2], the “Size (nm)” value was determined as 149 nm and the PDI is 0.060.

Turning to `CCCCCCCCC(CCCCCC)C(=O)OCCCC(COC(=O)C(CCCCCC)CCCCCCCC)N1CCC2(CCN(CCCCO)CC2)CC1` (stereo not shown) [Example 19, 2-(9-(4-hydroxybutyl)-3,9-diazaspiro[5.5]undecan-3-yl)pentane-1,5-diyl bis(2-hexyldecanoate)], in series [1], the EE % is 99%. Moreover, the “EC50 Hela (ng/well)” value with Hela cells is 0.89 ng/well. Also, in the series with HEK293F cells, the “EC50 Hek293F (ng/well)” value was 1.4 ng/well. In series [2], the “Size (nm)” value was 153 nm and the PDI is on record as 0.140.

`CCCCCCCC(CCCCCCC)C(=O)OCC(COC(=O)C(CCCCCCC)CCCCCCC)N1CCC2(CC1)CN(CCCCO)C2` [Example 20, 2-(2-(4-hydroxybutyl)-2,7-diazaspiro[3.5]nonan-7-yl)propane-1,3-diyl bis(2-heptylnonanoate)] yielded an EE % in series [1] of 98%. In the series on Hela cells, the “EC50 Hela (ng/well)” value worked out at 0.28 ng/well. Moreover, the “EC50 Hek293F (ng/well)” value in the series with HEK293F cells was found to be 0.22 ng/well. Besides, in series [2], the “Size (nm)” value was 105 nm and the PDI amounted to 0.073.

As for `CCCCCCCCC(CCCCCC)C(=O)OCC(COC(=O)C(CCCCCC)CCCCCCCC)N1CCC2(CCN(C(C)CCCO)CC2)CC1` (stereo not shown) [Example 21, 2-(9-(5-hydroxypentan-2-yl)-3,9-diazaspiro[5.5]undecan-3-yl)propane-1,3-diyl bis(2-hexyldecanoate)], the EE % in series [1] is reported as 99%. Besides, in the series on Hela cells, the “EC50 Hela (ng/well)” value was determined as 0.41 ng/well. The “EC50 Hek293F (ng/well)” value with HEK293F cells is listed as 0.28 ng/well. In series [2], the “Size (nm)” value was determined as 159 nm and the PDI turned out to be 0.064.

`CCCCCCCC(CCCCCCC)C(=O)OCC(COC(=O)C(CCCCCCC)CCCCCCC)N1CCC2(CCN(CCCCO)C2)CC1` [Example 22, 2-(2-(4-hydroxybutyl)-2,8-diazaspiro[4.5]decan-8-yl)propane-1,3-diyl bis(2-heptylnonanoate)]: in series [1], the EE % worked out at 99%. Also, the “EC50 Hela (ng/well)” value with Hela cells was determined as 0.39 ng/well. Further, in the series with HEK293F cells, the “EC50 Hek293F (ng/well)” value came to 0.14 ng/well. Also, in series [2], the “Size (nm)” value is reported as 107 nm and the PDI is given as 0.065.

Consider `CCCCCCCCC(CCCCCC)C(=O)OCC(COC(=O)C(CCCCCC)CCCCCCCC)N1CCC2(CCN(CCCCO)CC2)CC1` (stereo not shown) [Example 23, 2-(9-(4-hydroxybutyl)-3,9-diazaspiro[5.5]undecan-3-yl)propane-1,3-diyl bis(2-hexyldecanoate)], for which the EE % in series [1] was 100%. Further, the “EC50 Hela (ng/well)” value in the series on Hela cells amounted to 1.2 ng/well. Besides, the “EC50 Hek293F (ng/well)” value in the series on HEK293F cells turned out to be 0.47 ng/well. In addition, in series [2], the “Size (nm)” value is recorded as 144 nm and the PDI was found to be 0.090.

For `CCCCCCCCC(CCCCCCCC)C(=O)OCC(COC(=O)C(CCCCCCCC)CCCCCCCC)N1CCC2(CCN(CCCCO)CC2)CC1` [Example 24, 2-(9-(4-hydroxybutyl)-3,9-diazaspiro[5.5]undecan-3-yl)propane-1,3-diyl bis(2-octyldecanoate)], the EE % in series [1] is 99%. The “EC50 Hela (ng/well)” value in the series on Hela cells worked out at 0.72 ng/well. Moreover, in the series with HEK293F cells, the “EC50 Hek293F (ng/well)” value came out at 0.48 ng/well. In addition, in series [2], the “Size (nm)” value was determined as 82 nm and the PDI worked out at 0.072.

`CCCCCCCC(CCCCCCC)C(=O)OCC(COC(=O)C(CCCCCCC)CCCCCCC)N1CCC2(CCN(CCCCCO)CC2)CC1` [Example 25, 2-(9-(5-hydroxypentyl)-3,9-diazaspiro[5.5]undecan-3-yl)propane-1,3-diyl bis(2-heptylnonanoate)]: the EE % in series [1] was found to be 99%. The “EC50 Hela (ng/well)” value with Hela cells is 0.61 ng/well. Further, the “EC50 Hek293F (ng/well)” value in the series on HEK293F cells is listed as 0.42 ng/well. In series [2], the “Size (nm)” value is 137 nm and the PDI was 0.040.

In series [1], `CCCCCCCCC(CCCCCCC)C(=O)OCC(COC(=O)C(CCCCCCC)CCCCCCCC)N1CCC2(CCN(CCCCO)CC2)CC1` (stereo not shown) [Example 26, 2-(9-(4-hydroxybutyl)-3,9-diazaspiro[5.5]undecan-3-yl)propane-1,3-diyl bis(2-heptyldecanoate)] came in with an EE % of 100%. Also, the “EC50 Hela (ng/well)” value in the series with Hela cells was 1.8 ng/well. The “EC50 Hek293F (ng/well)” value with HEK293F cells is 1.6 ng/well. Also, in series [2], the “Size (nm)” value is reported as 96 nm and the PDI was 0.030.

On to `CCCCCCCCC(CCCC)C(=O)OCC(COC(=O)C(CCCC)CCCCCCCC)N1CCC2(CCN(CCCCO)CC2)CC1` (stereo not shown) [Example 27, 2-(9-(4-hydroxybutyl)-3,9-diazaspiro[5.5]undecan-3-yl)propane-1,3-diyl bis(2-butyldecanoate)], for which, in series [1], the EE % came to 97%. In the series with Hela cells, the “EC50 Hela (ng/well)” value came out at 12.5 ng/well. Besides, the “EC50 Hek293F (ng/well)” value in the series on HEK293F cells is recorded as 35.9 ng/well. For the same compound, in series [2], the “Size (nm)” value stood at 74 nm and the PDI is 0.095.

Take `CCCCCCCCC(CCCCCC)CC(=O)OCC(COC(=O)CC(CCCCCC)CCCCCCCC)N1CCC2(CCN(CCCCO)CC2)CC1` (stereo not shown) [Example 28, 2-(9-(4-hydroxybutyl)-3,9-diazaspiro[5.5]undecan-3-yl)propane-1,3-diyl bis(3-hexylundecanoate)]: in series [1], the EE % is on record as 99%. Further, in the series on Hela cells, the “EC50 Hela (ng/well)” value is listed as 6.4 ng/well. Besides, the “EC50 Hek293F (ng/well)” value with HEK293F cells is recorded as 9.9 ng/well. Besides, in series [2], the “Size (nm)” value is recorded as 96 nm and the PDI is given as 0.025.

`CCCCCCCCC(CCCCC)C(=O)OCC(COC(=O)C(CCCCC)CCCCCCCC)N1CCC2(CCN(CCCCO)CC2)CC1` (stereo not shown) [Example 29, 2-(9-(4-hydroxybutyl)-3,9-diazaspiro[5.5]undecan-3-yl)propane-1,3-diyl bis(2-pentyldecanoate)]: the EE % in series [1] came to 100%. Besides, the “EC50 Hela (ng/well)” value in the series on Hela cells turned out to be 1.0 ng/well. Besides, the “EC50 Hek293F (ng/well)” value in the series on HEK293F cells worked out at 0.82 ng/well. Also, in series [2], the “Size (nm)” value is on record as 130 nm and the PDI stood at 0.050.

As for `CCCCCCCCC(CC1CCC1)C(=O)OCC(COC(=O)C(CCCCCCCC)CC1CCC1)N1CCC2(CCN(CCCCO)CC2)CC1` (stereo not shown) [Example 30, 2-(9-(4-hydroxybutyl)-3,9-diazaspiro[5.5]undecan-3-yl)propane-1,3-diyl bis(2-(cyclobutylmethyl)decanoate)], in series [1], the EE % turned out to be 99%. Besides, the “EC50 Hela (ng/well)” value in the series with Hela cells is listed as 3.3 ng/well. The “EC50 Hek293F (ng/well)” value in the series with HEK293F cells amounted to 12.6 ng/well. In series [2], the “Size (nm)” value is reported as 102 nm and the PDI was 0.030.

`CCCCCCCCCCCCC(CCCCCCC)C(=O)OCC(COC(=O)C(CCCCCCC)CCCCCCCCCCCC)N1CCC2(CCN(CCCCO)CC2)CC1` (stereo not shown) [Example 31, 2-(9-(4-hydroxybutyl)-3,9-diazaspiro[5.5]undecan-3-yl)propane-1,3-diyl bis(2-heptyltetradecanoate)]: the EE % in series [1] worked out at 99%. The “EC50 Hela (ng/well)” value with Hela cells amounted to 2.9 ng/well. Further, in the series on HEK293F cells, the “EC50 Hek293F (ng/well)” value is recorded as 1.7 ng/well. In series [2], the “Size (nm)” value is recorded as 121 nm and the PDI was determined as 0.150.

Source of the values: patent US20250367129A1, “Lipid Compounds and Uses Thereof” (Pfizer Inc., priority 2022, published 2025).
